Test results: PMC8518411, “Discovery of GPR183 Agonists Based on an Antagonist Scaffold” (Chemmedchem, 2021)
“Also recorded” adds a separate entry of the source. Where two headings read alike, the source gives them in different places.

Legend:
GPR183 [1] = target: T1, GPR183 (Homo sapiens, UniProt P32249); experiment: cell-based
GPR183 [2] = target: T1, GPR183; type: cell-based; parameters: hemagglutinin signal peptide (upstream of the FLAG tag) (N); expressed in transfected cells; host or cells: CHO-K1 (ATCC CCL-61), transient lipofection, modified pcDNA3 vector; conditions: for agonist activity in calcium mobilization screen: 10 μM compound
GPR183 [3] = target: T1, GPR183; experiment: BRET cAMP (CAMYEL biosensor) assay, antagonist mode (antagonist added 10 min prior to agonist); type: cell-based; parameters: hemagglutinin signal peptide (upstream of the FLAG tag) (N); expressed in transfected cells; host or cells: CHO-K1 (ATCC CCL-61), transient lipofection, modified pcDNA3 vector
GPR183 [4] = target: T1, GPR183; conditions: dose-response, BRET
[5] = calcium assay dose-response, mean of 3 experiments in duplicates, read-out: EC50 (potency)
[6] = EC50 (potency), Gαi coupling, BRET, three experiments

T1 sequence (P32249 whole entry): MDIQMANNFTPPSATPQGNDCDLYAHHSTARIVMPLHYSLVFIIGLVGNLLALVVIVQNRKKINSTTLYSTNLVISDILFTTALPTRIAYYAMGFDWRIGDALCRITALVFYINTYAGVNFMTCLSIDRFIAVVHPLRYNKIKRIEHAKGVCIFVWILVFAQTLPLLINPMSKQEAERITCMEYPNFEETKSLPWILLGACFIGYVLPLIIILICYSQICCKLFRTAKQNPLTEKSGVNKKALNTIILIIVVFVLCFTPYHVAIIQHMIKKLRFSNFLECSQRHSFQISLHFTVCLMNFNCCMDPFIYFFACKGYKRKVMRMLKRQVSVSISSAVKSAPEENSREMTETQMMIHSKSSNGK

`C[C@H](CCCC(C)(C)O)[C@H]1CC[C@H]2[C@@H]3[C@H](O)C=C4C[C@@H](O)CC[C@]4(C)[C@H]3CC[C@]12C` [Compound 1, 7α,25‐dihydroxycholesterol, reference compound] gave an EC50 (GPR183 [1]) of 19 nM and an EC50 (GPR183 [2]) of 17 nM.

Work on `Cc1nn(C)c(C)c1/C=C/C(=O)N1CCN(C(=O)C2COc3ccccc3O2)CC1` (centres unmarked) [Compound 9] yielded an EC50 (GPR183 [2]; [5]) of 634 nM.

In the case of `O=C(/C=C/c1cccs1)N1CCN(C(=O)c2cccc3ccccc23)CC1` [Compound 10], the EC50 (GPR183 [2]; [5]) is reported as 86 nM.

Work on `O=C(/C=C/c1ccccc1Br)N1CCN(C(=O)Cc2ccc(F)cc2)CC1` [Compound 12] yielded an EC50 (GPR183 [2]; [5]) of 107 nM.

`O=C(CCC1CCCC1)N1CCN(C(=O)c2cc(=O)c3ccccc3o2)CC1` [Compound 13] was tested, and the EC50 (GPR183 [2]; [5]) was 165 nM.

With `O=C(COc1cccc2ccccc12)N1CCN(C(=O)c2ccccc2)CC1` [Compound 15] the EC50 (GPR183 [1]; [6]) was 660 nM and the EC50 (GPR183 [2]; [5]) was 209 nM.

In the case of `COc1cc(C(=O)N2CCN(C(=O)COc3ccc(Cl)cc3C)CC2)ccc1C` [Compound 16], the EC50 (GPR183 [1]; [6]) is reported as 51 nM, the EC50 (GPR183 [1]; pEC50±SE, Gαi coupling, BRET) is reported as 50.1 nM and the EC50 (GPR183 [2]; [5]) is reported as 179 nM.

`O=C(COc1ccc(F)cc1Br)N1CCN(C(=O)C2COc3ccccc3O2)CC1` (centres unmarked) [Compound 17] gave an EC50 (GPR183 [2]; [5]) of 278 nM.

For `O=C(COc1ccc(F)cc1Cl)N1CCN(C(=O)c2cccs2)CC1` [Compound 18], the “agonist activity in calcium mobilization screen” value (GPR183 [2]) was “active” and the EC50 (GPR183 [2]; [5]) was 740 nM.

For `O=C(COc1ccc2c(c1)CCC2)N1CCN(C(=O)c2cccs2)CC1` [Compound 69], the “agonist activity in calcium mobilization screen” value (GPR183 [2]) was “inactive”.

For `O=C(/C=C/c1ccccc1)N1CCN(C(=O)c2ccccc2)CC1` [Compound 88], the inhibition at 10 µM (GPR183 [3]; 10 μM (highest concentration tested), 10 nM of agonist 1 after preincubation, read-out: inhibition of G protein activity induced by 1) was 79%.

`O=C(COc1ccccc1)N1CCN(C(=O)c2ccccc2)CC1` [Compound 90] was tested, and the “agonist activity (Gαi coupling)” value (GPR183 [4]) was “inactive” and the “antagonist properties (inhibition of G protein activity induced by 1)” value (GPR183 [3]; 10 nM of agonist 1 after preincubation with compound) was “did not inhibit”.

With `Cc1cc(Cl)ccc1OCC(=O)N1CCN(C(=O)c2ccccc2)CC1` [Compound 91] the “agonist activity (Gαi coupling)” value (GPR183 [4]) was “partial agonist properties; also recorded: active”, the EC50 (GPR183 [1]; [6]) was 64 nM and the EC50 (GPR183 [1]; pEC50±SE, Gαi coupling, BRET) was 63.1 nM.

`COc1cc(C(=O)N2CCN(C(=O)COc3cccc4ccccc34)CC2)ccc1C` [Compound 92] was tested, and the “agonist activity (Gαi coupling)” value (GPR183 [4]) was “partial agonist properties” and the EC50 (GPR183 [1]; [6]) was 757 nM.
